This assay deals with CD2F1 mice, L1210 leukemia ip, survival T/C. In words: NCI In Vivo Anticancer Drug Screen. Data for tumor model L1210 Leukemia (intraperitoneal) in CD2F1 (CDF1) mice. The conditions noted are these: higher = longer survival. A digest of the protocol:
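In this screen, transplantable tumors were grown in mice given either the compound or its vehicle. Results were expressed as the treated measurement relative to the control measurement.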

Where [1] appears, read: endpoint: mean survival time, dose: 50.0 mg/kg/injection, schedule: Q04DX003 (ip), vehicle: saline.
Where [2] appears, read: endpoint: mean survival time, dose: 100.0 mg/kg/injection, schedule: Q04DX003 (ip), vehicle: saline.
[3] abbreviates: endpoint: mean survival time, dose: 200.0 mg/kg/injection, schedule: Q04DX003 (ip), vehicle: saline.
The mark [4] stands for this setting: endpoint: mean survival time, dose: 100.0 mg/kg/injection, schedule: Q04DX002 (ip), vehicle: saline with Tween-80.
Setting [5] is: endpoint: mean survival time, dose: 100.0 mg/kg/injection, schedule: Q01DX009 (ip), vehicle: saline with Tween-80.
The mark [6] stands for this setting: endpoint: mean survival time, dose: 100.0 mg/kg/injection, schedule: Q04DX003 (ip), vehicle: saline with Tween-80.
Setting [7] is: endpoint: mean survival time, dose: 200.0 mg/kg/injection, schedule: Q04DX003 (ip), vehicle: saline with Tween-80.
Where [8] appears, read: endpoint: mean survival time, dose: 400.0 mg/kg/injection, schedule: Q04DX003 (ip), vehicle: saline with Tween-80.
The mark [9] stands for this setting: endpoint: mean survival time, dose: 200.0 mg/kg/injection, schedule: Q01DX009 (ip), vehicle: saline with Tween-80.
Where [10] appears, read: endpoint: mean survival time, dose: 50.0 mg/kg/injection, schedule: Q01DX009 (ip), vehicle: saline with Tween-80.

Structures are written as SMILES. Values joined by “and” are separate entries in the source; they are usually repeats but may differ in a detail not shown here. Identical values can stand only once. Toxic doses and inconclusive results are not listed.

As for `c1cc2n(n1)CCN2`, the T/C runs as follows: (endpoint: mean survival time, dose: 8.0 mg/kg/injection, schedule: Q03HX008 (ip), vehicle: saline) 95 % of control; (endpoint: mean survival time, dose: 8.0 mg/kg/injection, schedule: Q03HX016 (ip), vehicle: saline) 96 % of control; (endpoint: mean survival time, dose: 8.0 mg/kg/injection, schedule: Q03HX024 (ip), vehicle: saline) 102 % of control; (endpoint: mean survival time, dose: 16.0 mg/kg/injection, schedule: Q03HX008 (ip), vehicle: saline) 98 % of control; (endpoint: mean survival time, dose: 16.0 mg/kg/injection, schedule: Q03HX016 (ip), vehicle: saline) 97 % of control; (endpoint: mean survival time, dose: 16.0 mg/kg/injection, schedule: Q03HX024 (ip), vehicle: saline) 104 % of control. Further, the T/C is 103 % of control (endpoint: mean survival time, dose: 25.0 mg/kg/injection, schedule: Q01DX009 (ip), vehicle: saline); 100 % of control (endpoint: mean survival time, dose: 32.0 mg/kg/injection, schedule: Q01DX005 (ip), vehicle: saline); 102 % of control (endpoint: mean survival time, dose: 32.0 mg/kg/injection, schedule: Q03HX008 (ip), vehicle: saline); 98 % of control (endpoint: mean survival time, dose: 32.0 mg/kg/injection, schedule: Q03HX016 (ip), vehicle: saline); 107 % of control (endpoint: mean survival time, dose: 32.0 mg/kg/injection, schedule: Q03HX024 (ip), vehicle: saline); 98 % of control under setting [1]. The T/C by setting is: (endpoint: mean survival time, dose: 50.0 mg/kg/injection, schedule: Q04DX003 (iv), vehicle: saline) 98 % of control; (endpoint: mean survival time, dose: 64.0 mg/kg/injection, schedule: Q01DX005 (ip), vehicle: saline) 103 % of control; (endpoint: mean survival time, dose: 64.0 mg/kg/injection, schedule: Q01DX009 (ip), vehicle: saline) 97 % of control; (endpoint: mean survival time, dose: 64.0 mg/kg/injection, schedule: Q03HX008 (ip), vehicle: saline) 109 % of control; (endpoint: mean survival time, dose: 64.0 mg/kg/injection, schedule: Q03HX016 (ip), vehicle: saline) 102 % of control; (endpoint: mean survival time, dose: 64.0 mg/kg/injection, schedule: Q03HX024 (ip), vehicle: saline) 116 % of control. Moreover, the T/C runs as follows: (endpoint: mean survival time, dose: 100.0 mg/kg/injection, schedule: Q01DX009 (ip), vehicle: saline) 120 % of control; under setting [2], 102 % of control; (endpoint: mean survival time, dose: 100.0 mg/kg/injection, schedule: Q04DX003 (ip), vehicle: water) 120 % of control and 105 % of control; (endpoint: mean survival time, dose: 100.0 mg/kg/injection, schedule: Q04DX003 (iv), vehicle: saline) 98 % of control; (endpoint: mean survival time, dose: 128.0 mg/kg/injection, schedule: Q01DX001 (ip), vehicle: saline) 104 % of control; (endpoint: mean survival time, dose: 128.0 mg/kg/injection, schedule: Q01DX005 (ip), vehicle: saline) 114 % of control. The T/C by setting is: (endpoint: mean survival time, dose: 128.0 mg/kg/injection, schedule: Q01DX009 (ip), vehicle: saline) 122 % of control; (endpoint: mean survival time, dose: 128.0 mg/kg/injection, schedule: Q04DX003 (ip), vehicle: saline) 105 % of control; (endpoint: mean survival time, dose: 128.0 mg/kg/injection, schedule: Q08DX002 (ip), vehicle: saline) 104 % of control; (endpoint: mean survival time, dose: 200.0 mg/kg/injection, schedule: Q01DX009 (ip), vehicle: saline) 118 % of control; under setting [3], 108 % of control; (endpoint: mean survival time, dose: 200.0 mg/kg/injection, schedule: Q04DX003 (ip), vehicle: water) 115 % of control and 120 % of control. The T/C was 101 % of control (endpoint: mean survival time, dose: 200.0 mg/kg/injection, schedule: Q04DX003 (iv), vehicle: saline); 110 % of control (endpoint: mean survival time, dose: 256.0 mg/kg/injection, schedule: Q01DX001 (ip), vehicle: saline); 107 % of control (endpoint: mean survival time, dose: 256.0 mg/kg/injection, schedule: Q01DX005 (ip), vehicle: saline); 100 % of control (endpoint: mean survival time, dose: 256.0 mg/kg/injection, schedule: Q01DX009 (ip), vehicle: saline); 106 % of control (endpoint: mean survival time, dose: 256.0 mg/kg/injection, schedule: Q08DX002 (ip), vehicle: saline); 124 % of control (endpoint: mean survival time, dose: 400.0 mg/kg/injection, schedule: Q04DX003 (ip), vehicle: saline). For the same compound, the T/C is 153 % of control (endpoint: mean survival time, dose: 400.0 mg/kg/injection, schedule: Q04DX003 (ip), vehicle: water); 159 % of control (endpoint: mean survival time, dose: 512.0 mg/kg/injection, schedule: Q04DX003 (ip), vehicle: saline); 165 % of control (endpoint: mean survival time, dose: 512.0 mg/kg/injection, schedule: Q08DX002 (ip), vehicle: saline); 101 % of control (endpoint: mean survival time, dose: 600.0 mg/kg/injection, schedule: Q04DX003 (ip), vehicle: water).
Consider `Brc1ccccc1CCc1ccccc1Br`, for which the T/C runs as follows: under setting [1], 97 % of control; under setting [2], 95 % of control; under setting [3], 100 % of control.
Turning to `[Co+3].[NH-]CC[NH-].[NH-]CC[NH-].[NH-]CC[NH-].[O-][I+2]([O-])O`, the T/C reads like this: under setting [4], 100 % of control; (endpoint: mean survival time, dose: 200.0 mg/kg/injection, schedule: Q04DX002 (ip), vehicle: saline with Tween-80) 96 % of control.
In the case of `CC(C)=CCNc1ncnc2c1ncn2C1OC(CO)C(O)C1O` (stereo unspecified), the T/C runs as follows: under setting [5], 95 % of control; under setting [6], 91 % of control; under setting [7], 101 % of control; under setting [8], 100 % of control.
For the compound `COc1cc(OC)c(C(=O)CCl)c(O)c1Cl`, the T/C under setting [5] was 93 % of control.
Take `CCN(C(=O)Nc1cc(OC)ccc1OC)c1ccc(Cl)cc1`: the T/C by setting is: under setting [5], 96 % of control; under setting [9], 96 % of control; (endpoint: mean survival time, dose: 400.0 mg/kg/injection, schedule: Q01DX009 (ip), vehicle: saline with Tween-80) 93 % of control.
Regarding `Cc1nc2ccc(Cl)cc2n1C`, the T/C under setting [10] was 102 % of control, the T/C under setting [5] was 102 % of control and the T/C under setting [9] is 106 % of control.
Regarding `O=S(=O)(F)c1ccc(S)c(Cl)c1Cl`, under setting [4], the T/C was 98 % of control.
Regarding `O=C(Nc1ccccc1)c1ccccc1C(O)(c1ccccc1)c1ccccn1` (stereo unspecified), the T/C was 97 % of control under setting [6], 101 % of control under setting [7] and 86 % of control under setting [8].
With `CN1C2CCC1C(Br)C(=O)C2` (stereo unspecified), the T/C was 102 % of control (endpoint: median survival time, dose: 25.0 mg/kg/injection, schedule: Q01DX009 (ip), vehicle: saline); 105 % of control (endpoint: median survival time, dose: 50.0 mg/kg/injection, schedule: Q01DX009 (ip), vehicle: saline); 105 % of control (endpoint: median survival time, dose: 100.0 mg/kg/injection, schedule: Q01DX009 (ip), vehicle: saline); 101 % of control (endpoint: median survival time, dose: 200.0 mg/kg/injection, schedule: Q01DX009 (ip), vehicle: saline).
As for `CC(C)CCn1cnc2c(=S)nc(N)[nH]c21`, the T/C was 118 % of control (endpoint: mean survival time, dose: 50.0 mg/kg/injection, schedule: Q01DX001 (ip), vehicle: saline with Tween-80) and 95 % of control (endpoint: mean survival time, dose: 100.0 mg/kg/injection, schedule: Q01DX001 (ip), vehicle: saline with Tween-80).
Regarding `N#CSCc1ccc(O)c(C(=O)O)c1`, the T/C was 94 % of control (endpoint: mean survival time, dose: 10.0 mg/kg/injection, schedule: Q01DX009 (ip), vehicle: saline with Tween-80); 105 % of control (endpoint: mean survival time, dose: 20.0 mg/kg/injection, schedule: Q01DX009 (ip), vehicle: saline with Tween-80); 106 % of control (endpoint: mean survival time, dose: 40.0 mg/kg/injection, schedule: Q01DX009 (ip), vehicle: saline with Tween-80).
For the compound `COc1ccc(SC(=O)N(C)C)cc1`, the T/C is 100 % of control (endpoint: mean survival time, dose: 25.0 mg/kg/injection, schedule: Q01DX009 (ip), vehicle: saline with Tween-80); 103 % of control under setting [10]; 95 % of control and 98 % of control under setting [5].
For `O=C1CSC(=S)N1/N=C/c1cc(Cl)cc(Cl)c1O`, the T/C (endpoint: mean survival time, dose: 75.0 mg/kg/injection, schedule: Q01DX001 (ip), vehicle: other) is 90 % of control and the T/C (endpoint: mean survival time, dose: 150.0 mg/kg/injection, schedule: Q01DX001 (ip), vehicle: other) is 102 % of control.
Regarding `COc1cc(Cl)ccc1NC(=O)Oc1c(Cl)cccc1Cl`, the T/C is, setting by setting: under setting [10], 104 % of control; under setting [5], 100 % of control; under setting [9], 100 % of control.
`CC1(C)N=C(N)N=C(N)N1c1cccc(OCCOc2ccc(NC(=O)CBr)cc2)c1`: the T/C (endpoint: mean survival time, dose: 6.25 mg/kg/injection, schedule: Q01DX009 (ip), vehicle: other) is 102 % of control; the T/C (endpoint: mean survival time, dose: 12.5 mg/kg/injection, schedule: Q01DX009 (ip), vehicle: other) was 113 % of control; the T/C (endpoint: mean survival time, dose: 25.0 mg/kg/injection, schedule: Q01DX009 (ip), vehicle: other) was 110 % of control; the T/C (endpoint: mean survival time, dose: 50.0 mg/kg/injection, schedule: Q01DX009 (ip), vehicle: other) is 113 % of control.

For the origin of these results see PubChem BioAssay AID256 (DTP/NCI, 2004).
